Test results published in the kinase profiling compilation of Christmann-Franck et al. (2016).

How the values were obtained:
Experiment in all cases: KINOMEscan competition binding
Details in all cases: compound 10.0 µM
CDK15 (human) = CDK15 (human) (UniProt Q96Q40)
CDC2L2 (human) = CDC2L2 (human) (UniProt Q9UQ88)
TESK1 (human) = TESK1 (human) (UniProt Q15569)
RIPK4 (human) = RIPK4 (human) (UniProt P57078)
LATS1 (human) = LATS1 (human) (UniProt O95835)
MAP3K7 (human) = MAP3K7 (human) (UniProt O43318)
Sequence of MAP3K7 (human) (O43318 whole entry, looked up): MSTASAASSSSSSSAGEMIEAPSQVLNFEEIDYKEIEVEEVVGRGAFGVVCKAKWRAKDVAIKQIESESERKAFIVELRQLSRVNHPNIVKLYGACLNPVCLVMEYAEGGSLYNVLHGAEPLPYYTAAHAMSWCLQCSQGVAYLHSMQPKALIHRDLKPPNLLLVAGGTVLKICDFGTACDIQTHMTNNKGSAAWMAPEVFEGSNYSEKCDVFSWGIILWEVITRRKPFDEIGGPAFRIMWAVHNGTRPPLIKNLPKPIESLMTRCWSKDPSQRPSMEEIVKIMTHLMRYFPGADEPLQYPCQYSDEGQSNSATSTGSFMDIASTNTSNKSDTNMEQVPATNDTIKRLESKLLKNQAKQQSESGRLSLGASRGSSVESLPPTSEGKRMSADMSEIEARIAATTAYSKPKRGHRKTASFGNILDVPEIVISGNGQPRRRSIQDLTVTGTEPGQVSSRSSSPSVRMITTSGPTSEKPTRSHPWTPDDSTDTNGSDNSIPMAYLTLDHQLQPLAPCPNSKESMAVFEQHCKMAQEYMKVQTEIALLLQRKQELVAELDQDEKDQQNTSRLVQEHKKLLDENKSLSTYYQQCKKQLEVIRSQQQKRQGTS

[1] = system: MET (human), P08581 [Y1235D]
PTK2B (human) = PTK2B (human) (UniProt Q14289)
PRKD3 (human) = PRKD3 (human) (UniProt O94806)
TAOK3 (human) = TAOK3 (human) (UniProt Q9H2K8)
[2] = system: EIF2AK4 KD2 (human), Q9P2K8 [S808G]
GSK3B (human) = GSK3B (human) (UniProt P49841)
MARK3 (human) = MARK3 (human) (UniProt P27448)
STK32A (human) = STK32A (human) (UniProt Q8WU08)
PHKG2 (human) = PHKG2 (human) (UniProt P15735)
[3] = molecular target: JAK1 JH1 catalytic (human) (UniProt P23458)
MAP3K11 (human) = MAP3K11 (human) (UniProt Q16584)
MUSK (human) = MUSK (human) (UniProt O15146)
NLK (human) = NLK (human) (UniProt Q9UBE8)
Sequence of NLK (human) (Q9UBE8 whole entry, looked up): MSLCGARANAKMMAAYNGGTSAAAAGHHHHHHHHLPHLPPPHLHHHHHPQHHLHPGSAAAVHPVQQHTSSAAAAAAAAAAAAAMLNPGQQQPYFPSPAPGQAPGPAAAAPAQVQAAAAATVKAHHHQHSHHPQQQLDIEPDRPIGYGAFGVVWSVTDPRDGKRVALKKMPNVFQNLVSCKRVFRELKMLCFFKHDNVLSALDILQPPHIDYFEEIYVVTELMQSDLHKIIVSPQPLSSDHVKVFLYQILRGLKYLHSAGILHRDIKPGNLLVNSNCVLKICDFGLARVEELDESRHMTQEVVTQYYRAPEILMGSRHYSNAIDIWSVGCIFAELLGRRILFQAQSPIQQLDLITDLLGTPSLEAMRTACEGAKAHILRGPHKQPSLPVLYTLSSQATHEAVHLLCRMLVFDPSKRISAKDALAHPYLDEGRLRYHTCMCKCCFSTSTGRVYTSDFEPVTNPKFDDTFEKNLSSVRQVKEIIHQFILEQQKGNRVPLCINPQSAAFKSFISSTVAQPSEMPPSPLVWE

PIM1 (human) = PIM1 (human) (UniProt P11309)
PRKCD (human) = PRKCD (human) (UniProt Q05655)
RIPK1 (human) = RIPK1 (human) (UniProt Q13546)
AAK1 (human) = AAK1 (human) (UniProt Q2M2I8)
ABL2 (human) = ABL2 (human) (UniProt P42684)
DDR2 (human) = DDR2 (human) (UniProt Q16832)
RPS6KA6 KD2 (human) = RPS6KA6 KD2 (human) (UniProt Q9UK32)
TYRO3 (human) = TYRO3 (human) (UniProt Q06418)
Sequence of TYRO3 (human) (Q06418 whole entry, looked up): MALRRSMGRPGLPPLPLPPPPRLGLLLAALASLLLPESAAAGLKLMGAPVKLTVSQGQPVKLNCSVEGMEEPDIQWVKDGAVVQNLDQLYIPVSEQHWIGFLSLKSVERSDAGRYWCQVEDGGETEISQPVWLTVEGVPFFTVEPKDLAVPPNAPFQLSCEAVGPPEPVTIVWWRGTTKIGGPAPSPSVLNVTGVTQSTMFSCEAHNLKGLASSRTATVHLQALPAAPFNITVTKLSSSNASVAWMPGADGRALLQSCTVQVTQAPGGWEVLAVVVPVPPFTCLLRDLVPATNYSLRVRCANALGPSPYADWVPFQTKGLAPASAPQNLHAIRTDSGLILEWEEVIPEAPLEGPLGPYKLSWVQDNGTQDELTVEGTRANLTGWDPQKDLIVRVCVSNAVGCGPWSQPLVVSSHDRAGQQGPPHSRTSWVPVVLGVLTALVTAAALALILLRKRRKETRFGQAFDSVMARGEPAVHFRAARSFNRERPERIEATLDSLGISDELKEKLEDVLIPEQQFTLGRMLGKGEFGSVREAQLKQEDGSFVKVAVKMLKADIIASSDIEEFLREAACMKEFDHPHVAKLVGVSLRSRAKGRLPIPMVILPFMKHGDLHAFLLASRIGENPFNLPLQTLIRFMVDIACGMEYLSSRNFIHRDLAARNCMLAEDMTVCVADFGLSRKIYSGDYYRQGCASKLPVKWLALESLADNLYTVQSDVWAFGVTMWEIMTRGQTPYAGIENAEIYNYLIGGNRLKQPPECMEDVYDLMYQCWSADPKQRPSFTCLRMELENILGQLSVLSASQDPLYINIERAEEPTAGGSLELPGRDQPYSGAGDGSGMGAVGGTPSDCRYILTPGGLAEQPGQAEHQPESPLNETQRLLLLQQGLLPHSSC

CSNK1D (human) = CSNK1D (human) (UniProt P48730)
CSK (human) = CSK (human) (UniProt P41240)
PAK4 (human) = PAK4 (human) (UniProt O96013)
MAP3K4 (human) = MAP3K4 (human) (UniProt Q9Y6R4)
MYO3B (human) = MYO3B (human) (UniProt Q8WXR4)
STK33 (human) = STK33 (human) (UniProt Q9BYT3)
CSNK1A1L (human) = CSNK1A1L (human) (UniProt Q8N752)
SNRK (human) = SNRK (human) (UniProt Q9NRH2)
Sequence of SNRK (human) (Q9NRH2 whole entry, looked up): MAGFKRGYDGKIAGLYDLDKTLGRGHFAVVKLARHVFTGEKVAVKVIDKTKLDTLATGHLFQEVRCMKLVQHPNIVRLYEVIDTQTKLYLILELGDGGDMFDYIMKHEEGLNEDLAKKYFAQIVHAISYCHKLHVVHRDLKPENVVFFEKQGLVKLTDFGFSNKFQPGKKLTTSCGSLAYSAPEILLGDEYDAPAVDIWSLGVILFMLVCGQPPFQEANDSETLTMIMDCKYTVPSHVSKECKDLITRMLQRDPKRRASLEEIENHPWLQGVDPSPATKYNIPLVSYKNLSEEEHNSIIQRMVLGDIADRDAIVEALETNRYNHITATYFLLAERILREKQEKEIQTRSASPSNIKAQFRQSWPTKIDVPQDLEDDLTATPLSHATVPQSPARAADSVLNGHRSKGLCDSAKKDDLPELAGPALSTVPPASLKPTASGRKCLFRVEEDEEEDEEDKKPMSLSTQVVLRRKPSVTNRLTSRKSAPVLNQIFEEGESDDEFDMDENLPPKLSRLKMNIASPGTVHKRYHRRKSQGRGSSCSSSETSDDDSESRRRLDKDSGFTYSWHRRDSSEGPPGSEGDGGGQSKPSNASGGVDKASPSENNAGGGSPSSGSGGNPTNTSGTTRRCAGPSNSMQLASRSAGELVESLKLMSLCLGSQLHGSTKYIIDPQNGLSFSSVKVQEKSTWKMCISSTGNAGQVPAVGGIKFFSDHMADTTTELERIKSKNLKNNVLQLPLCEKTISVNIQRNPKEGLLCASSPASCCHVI

PLK3 (human) = PLK3 (human) (UniProt Q9H4B4)
Sequence of PLK3 (human) (Q9H4B4 whole entry, looked up): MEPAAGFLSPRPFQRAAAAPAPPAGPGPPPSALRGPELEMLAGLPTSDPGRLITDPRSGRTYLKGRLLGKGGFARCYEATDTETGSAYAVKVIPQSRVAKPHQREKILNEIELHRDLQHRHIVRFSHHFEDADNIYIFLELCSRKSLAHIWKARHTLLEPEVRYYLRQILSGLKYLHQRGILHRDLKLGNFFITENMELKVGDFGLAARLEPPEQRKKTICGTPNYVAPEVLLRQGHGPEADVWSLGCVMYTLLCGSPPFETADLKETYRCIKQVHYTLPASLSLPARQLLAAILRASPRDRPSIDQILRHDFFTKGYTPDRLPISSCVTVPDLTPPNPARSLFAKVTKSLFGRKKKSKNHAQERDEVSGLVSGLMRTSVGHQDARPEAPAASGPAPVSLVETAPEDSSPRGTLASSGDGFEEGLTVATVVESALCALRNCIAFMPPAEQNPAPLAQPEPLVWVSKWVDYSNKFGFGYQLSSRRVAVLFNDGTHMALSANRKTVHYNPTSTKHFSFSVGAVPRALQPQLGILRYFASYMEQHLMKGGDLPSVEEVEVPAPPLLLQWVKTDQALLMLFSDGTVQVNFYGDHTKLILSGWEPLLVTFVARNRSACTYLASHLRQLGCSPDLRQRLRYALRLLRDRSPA

DAPK1 (human) = DAPK1 (human) (UniProt P53355)
CLK4 (human) = CLK4 (human) (UniProt Q9HAZ1)
Sequence of CLK4 (human) (Q9HAZ1 whole entry, looked up): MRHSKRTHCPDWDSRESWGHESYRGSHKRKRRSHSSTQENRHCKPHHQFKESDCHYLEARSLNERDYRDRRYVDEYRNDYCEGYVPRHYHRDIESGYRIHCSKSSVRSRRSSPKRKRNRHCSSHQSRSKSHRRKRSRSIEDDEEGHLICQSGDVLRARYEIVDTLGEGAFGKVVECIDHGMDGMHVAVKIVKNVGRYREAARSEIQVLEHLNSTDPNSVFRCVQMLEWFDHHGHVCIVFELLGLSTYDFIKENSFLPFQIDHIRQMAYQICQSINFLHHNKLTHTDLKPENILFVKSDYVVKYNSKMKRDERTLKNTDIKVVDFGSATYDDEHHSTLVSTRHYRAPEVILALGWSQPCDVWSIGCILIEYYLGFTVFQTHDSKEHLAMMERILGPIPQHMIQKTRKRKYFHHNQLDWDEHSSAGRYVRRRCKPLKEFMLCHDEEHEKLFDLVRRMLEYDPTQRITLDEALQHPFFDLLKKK

DMPK (human) = DMPK (human) (UniProt Q09013)
Sequence of DMPK (human) (Q09013 whole entry, looked up): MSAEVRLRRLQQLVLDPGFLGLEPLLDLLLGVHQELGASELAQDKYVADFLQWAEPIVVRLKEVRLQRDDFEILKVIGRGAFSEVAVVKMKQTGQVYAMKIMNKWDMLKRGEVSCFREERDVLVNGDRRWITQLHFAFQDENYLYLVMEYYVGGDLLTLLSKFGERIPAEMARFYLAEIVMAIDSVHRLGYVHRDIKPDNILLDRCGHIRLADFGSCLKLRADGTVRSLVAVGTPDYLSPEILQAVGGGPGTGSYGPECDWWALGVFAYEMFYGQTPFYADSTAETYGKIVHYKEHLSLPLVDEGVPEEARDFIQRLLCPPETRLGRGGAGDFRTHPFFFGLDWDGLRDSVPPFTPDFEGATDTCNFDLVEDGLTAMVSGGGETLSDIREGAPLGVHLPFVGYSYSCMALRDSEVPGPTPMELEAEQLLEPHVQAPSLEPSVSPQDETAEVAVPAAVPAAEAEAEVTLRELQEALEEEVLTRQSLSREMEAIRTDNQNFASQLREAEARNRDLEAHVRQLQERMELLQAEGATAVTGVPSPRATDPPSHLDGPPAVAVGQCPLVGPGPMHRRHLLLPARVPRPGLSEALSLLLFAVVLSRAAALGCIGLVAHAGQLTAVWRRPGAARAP

ROCK1 (human) = ROCK1 (human) (UniProt Q13464)
STK39 (human) = STK39 (human) (UniProt Q9UEW8)

Sequence of CDK15 (human) (Q96Q40 whole entry, looked up): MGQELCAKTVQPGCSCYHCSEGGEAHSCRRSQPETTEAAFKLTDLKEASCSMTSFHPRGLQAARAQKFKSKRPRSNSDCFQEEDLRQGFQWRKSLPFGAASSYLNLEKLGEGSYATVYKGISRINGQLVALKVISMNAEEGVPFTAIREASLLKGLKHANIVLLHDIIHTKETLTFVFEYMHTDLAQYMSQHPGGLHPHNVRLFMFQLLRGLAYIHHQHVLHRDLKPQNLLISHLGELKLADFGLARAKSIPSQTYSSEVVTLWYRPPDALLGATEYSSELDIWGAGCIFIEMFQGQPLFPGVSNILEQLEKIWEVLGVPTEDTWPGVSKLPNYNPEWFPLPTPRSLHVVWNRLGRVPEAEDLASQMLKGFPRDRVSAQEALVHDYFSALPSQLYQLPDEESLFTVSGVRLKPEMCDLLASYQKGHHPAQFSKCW

`CCC(=O)N1CCN(c2ccc(-n3c(=O)ccc4cnc5ccc(-c6cnc7ccccc7c6)cc5c43)cc2C(F)(F)F)CC1` gave a per cent of control (CDK15 (human)) of 88%, a per cent of control (CDC2L2 (human)) of 100% and a kinase still bound, per cent of control (TESK1 (human)) of 58%. The kinase still bound, per cent of control (RIPK4 (human)) was 100%, the kinase still bound, per cent of control (LATS1 (human)) was 100% and the kinase still bound, per cent of control (MAP3K7 (human)) was 47%. For the same compound, the kinase still bound, per cent of control [1] was 100%, the kinase still bound, per cent of control (PTK2B (human)) was 100% and the kinase still bound, per cent of control (PRKD3 (human)) was 100%. For the same compound, the kinase still bound, per cent of control (TAOK3 (human)) was 76%, the kinase still bound, per cent of control [2] was 99% and the kinase still bound, per cent of control (GSK3B (human)) was 100%. For the same compound, the kinase still bound, per cent of control (MARK3 (human)) was 100%, the kinase still bound, per cent of control (STK32A (human)) was 100% and the kinase still bound, per cent of control (PHKG2 (human)) was 100%. For the same compound, the kinase still bound, per cent of control [3] was 82%, the kinase still bound, per cent of control (MAP3K11 (human)) was 69% and the kinase still bound, per cent of control (MUSK (human)) was 100%. For the same compound, the kinase still bound, per cent of control (NLK (human)) was 25%, the kinase still bound, per cent of control (PIM1 (human)) was 80% and the kinase still bound, per cent of control (PRKCD (human)) was 82%. For the same compound, the kinase still bound, per cent of control (RIPK1 (human)) was 1.9%, the kinase still bound, per cent of control (AAK1 (human)) was 75% and the kinase still bound, per cent of control (ABL2 (human)) was 99%. The kinase still bound, per cent of control (DDR2 (human)) was 100%, the kinase still bound, per cent of control (RPS6KA6 KD2 (human)) was 86% and the kinase still bound, per cent of control (TYRO3 (human)) was 31%. It also gave a per cent of control (CSNK1D (human)) of 4.3%, a kinase still bound, per cent of control (CSK (human)) of 71% and a kinase still bound, per cent of control (PAK4 (human)) of 100%. The kinase still bound, per cent of control (MAP3K4 (human)) was 47%, the kinase still bound, per cent of control (MYO3B (human)) was 100% and the kinase still bound, per cent of control (STK33 (human)) was 90%. The kinase still bound, per cent of control (CSNK1A1L (human)) was 81%, the kinase still bound, per cent of control (SNRK (human)) was 60% and the kinase still bound, per cent of control (PLK3 (human)) was 87%. It also gave a kinase still bound, per cent of control (DAPK1 (human)) of 96%, a kinase still bound, per cent of control (CLK4 (human)) of 49% and a kinase still bound, per cent of control (DMPK (human)) of 77%. The kinase still bound, per cent of control (ROCK1 (human)) was 53% and the per cent of control (STK39 (human)) was 100%.

Compound `CC(C)n1nc(-c2cc3cc(O)ccc3[nH]2)c2c(N)ncnc21` has a per cent of control (CDK15 (human)) of 96%, a per cent of control (CDC2L2 (human)) of 100% and a kinase still bound, per cent of control (TESK1 (human)) of 17%. It also gave a kinase still bound, per cent of control (RIPK4 (human)) of 6.3%, a kinase still bound, per cent of control (LATS1 (human)) of 55% and a kinase still bound, per cent of control (MAP3K7 (human)) of 22%. It also gave a kinase still bound, per cent of control [1] of 88%, a kinase still bound, per cent of control (PTK2B (human)) of 100% and a kinase still bound, per cent of control (PRKD3 (human)) of 94%. For the same compound, the kinase still bound, per cent of control (TAOK3 (human)) was 4.7%, the kinase still bound, per cent of control [2] was 81% and the kinase still bound, per cent of control (GSK3B (human)) was 91%. The kinase still bound, per cent of control (MARK3 (human)) was 100%, the kinase still bound, per cent of control (STK32A (human)) was 1.8% and the kinase still bound, per cent of control (PHKG2 (human)) was 12%. For the same compound, the kinase still bound, per cent of control [3] was 11%, the kinase still bound, per cent of control (MAP3K11 (human)) was 79% and the kinase still bound, per cent of control (MUSK (human)) was 100%. For the same compound, the kinase still bound, per cent of control (NLK (human)) was 10%, the kinase still bound, per cent of control (PIM1 (human)) was 26% and the kinase still bound, per cent of control (PRKCD (human)) was 39%. The kinase still bound, per cent of control (RIPK1 (human)) was 100%, the kinase still bound, per cent of control (AAK1 (human)) was 31% and the kinase still bound, per cent of control (ABL2 (human)) was 28%. For the same compound, the kinase still bound, per cent of control (DDR2 (human)) was 11%, the kinase still bound, per cent of control (RPS6KA6 KD2 (human)) was 47% and the kinase still bound, per cent of control (TYRO3 (human)) was 77%. It also gave a per cent of control (CSNK1D (human)) of 2.4%, a kinase still bound, per cent of control (CSK (human)) of 15% and a kinase still bound, per cent of control (PAK4 (human)) of 13%. It also gave a kinase still bound, per cent of control (MAP3K4 (human)) of 85%, a kinase still bound, per cent of control (MYO3B (human)) of 19% and a kinase still bound, per cent of control (STK33 (human)) of 45%. The kinase still bound, per cent of control (SNRK (human)) was 100%, the kinase still bound, per cent of control (PLK3 (human)) was 33% and the kinase still bound, per cent of control (DAPK1 (human)) was 3%. The kinase still bound, per cent of control (CLK4 (human)) was 9.7%, the kinase still bound, per cent of control (DMPK (human)) was 0.55% and the kinase still bound, per cent of control (ROCK1 (human)) was 61%. It also gave a per cent of control (STK39 (human)) of 97%.

`COC(=O)Nc1ccc(-c2nc(N3CCOCC3)c3cnn(C4CCN(C(=O)OC)CC4)c3n2)cc1` gave a per cent of control (CDK15 (human)) of 100%, a per cent of control (CDC2L2 (human)) of 100% and a kinase still bound, per cent of control (TESK1 (human)) of 91%. For the same compound, the kinase still bound, per cent of control (RIPK4 (human)) was 90%, the kinase still bound, per cent of control (LATS1 (human)) was 100% and the kinase still bound, per cent of control (MAP3K7 (human)) was 70%. For the same compound, the kinase still bound, per cent of control (PTK2B (human)) was 92%, the kinase still bound, per cent of control (PRKD3 (human)) was 100% and the kinase still bound, per cent of control (TAOK3 (human)) was 94%. For the same compound, the kinase still bound, per cent of control [2] was 88%, the kinase still bound, per cent of control (GSK3B (human)) was 100% and the kinase still bound, per cent of control (MARK3 (human)) was 100%. It also gave a kinase still bound, per cent of control (STK32A (human)) of 100%, a kinase still bound, per cent of control (PHKG2 (human)) of 86% and a kinase still bound, per cent of control [3] of 100%. It also gave a kinase still bound, per cent of control (MAP3K11 (human)) of 97%, a kinase still bound, per cent of control (MUSK (human)) of 100% and a kinase still bound, per cent of control (NLK (human)) of 99%. The kinase still bound, per cent of control (PIM1 (human)) was 100%, the kinase still bound, per cent of control (PRKCD (human)) was 99% and the kinase still bound, per cent of control (RIPK1 (human)) was 100%. The kinase still bound, per cent of control (AAK1 (human)) was 86%, the kinase still bound, per cent of control (ABL2 (human)) was 100% and the kinase still bound, per cent of control (DDR2 (human)) was 100%. The kinase still bound, per cent of control (RPS6KA6 KD2 (human)) was 96%, the kinase still bound, per cent of control (TYRO3 (human)) was 100% and the per cent of control (CSNK1D (human)) was 100%. It also gave a kinase still bound, per cent of control (CSK (human)) of 98%, a kinase still bound, per cent of control (PAK4 (human)) of 100% and a kinase still bound, per cent of control (MAP3K4 (human)) of 100%. For the same compound, the kinase still bound, per cent of control (MYO3B (human)) was 97%, the kinase still bound, per cent of control (STK33 (human)) was 84% and the kinase still bound, per cent of control (CSNK1A1L (human)) was 91%. The kinase still bound, per cent of control (SNRK (human)) was 100%, the kinase still bound, per cent of control (PLK3 (human)) was 93% and the kinase still bound, per cent of control (DAPK1 (human)) was 100%. For the same compound, the kinase still bound, per cent of control (CLK4 (human)) was 94%, the kinase still bound, per cent of control (DMPK (human)) was 100% and the kinase still bound, per cent of control (ROCK1 (human)) was 82%. It also gave a per cent of control (STK39 (human)) of 67%.
